Assays:
[1] = test system: immobilized TSP-1 (thrombospondin from human platelets); experiment: ELISA competition by unlabeled TAX2; assay type: binding; conditions: biotinylated TAX2 10 μg/mL; unlabeled competitor 0.001 to 5 mg/mL
Procedure: Microtiter plates (Nunc, ThermoFisher Scientific, Courtaboeuf, France) were coated overnight at 4°C with 0.5 μg TSP-1 in sodium carbonate-bicarbonate (BupH) buffer (Thermo Fisher Scientific). Plates were washed with PBS 0.1% BSA (Sigma-Aldrich) and non-specific sites were saturated during 30 min using 1% (w/v) BSA in BupH buffer. Biotin-labeled peptide (10 μg/mL, determined after dose-response assay from 0.01 to 100 μg/mL) was added in buffer containing 0.5% (w/v) BSA and incubated for 3 h at room temperature. Non-labeled peptide (0.001 to 5 mg/mL) was used as selective competitor. Plates were washed with PBS containing 0.1% (w/v) BSA and treated for 30 min with mouse anti-biotin antibody. Bound antibody was quantified using the mouse IgG Elite Vectastain ABC kit (Vector Laboratories) followed by incubation with 1-Step Turbo TMB substrate as a chromogen (ThermoFisher Scientific). The reaction was stopped with 0.5 M H2SO4 and absorbance was read at 450 nm.

[2] = test system: B16F1 melanoma tumor in C57BL/6 mice; experiment: Subcutaneous B16F1 melanoma allograft: tumor volume and necrosis; assay type: in vivo, mouse; conditions: 10 mg/kg i.p. days 3, 5, 7
Procedure: For the subcutaneous melanoma tumor model, suspensions of B16F1 cells (2.5 × 10^5 cells in 100 μL RPMI-1640 medium) were subcutaneously injected into the left flank of different randomized series of syngeneic C57BL/6 mice (n = 8–10 per group), as previously described. Intraperitoneal administrations of peptide (10 mg/kg mouse weight) or controls (physiological serum 0.9% (w/v) NaCl or a scrambled peptide) were performed at days 3, 5 and 7. In human pancreatic carcinoma xenograft experiments, 3 × 10^6 MIA PaCa-2 cells/mouse were implanted subcutaneously into the left flank of BALB/C athymic nude mice, then TAX2 intraperitoneal treatments (10 mg/kg mouse weight) were performed 3 times a week during 4 weeks starting at day 10 after tumor cells inoculation. Tumor volume was determined according to v = 0.5 A × B^2, where A denotes the largest dimension of the tumor and B represents the smallest dimension. At days indicated, mice were sacrificed and tumors were surgically extracted and fixed in 4% paraformaldehyde for further morphologic studies and for magnetic resonance imaging, or frozen for immunohistochemistry. Mice were also weighed every 2–3 days and daily checked for any modification in their behavior. Loss of 15% body weight was an indication for euthanasia as well as severe tumor necrosis, as it was sometimes associated with skin ulceration that would result in loss of body fluid and/or infection.
Histological analysis of formaldehyde-fixed and paraffin-embedded tumors were performed on hemalun, phloxin and saffron (HPS) stained 3 μm thick sections prepared using routine histological methods. To assess tumor-associated microvessel density (MVD), CD31 immunostaining was performed on 5 μm thick cryosections using biotin-labeled secondary antibody and streptavidin-HRP AEC detection system (Microm Microtech, Francheville, France), followed by hematein counter-coloration. Negative controls were done omitting the primary antibody. The necrotic part relative to total tumor surface for each tumor slice as well as MVD were quantified using ImageJ software.
Tumors were studied by magnetic resonance imaging (MRI) for visualization of tumor necrosis when the subcutaneous allografts reached a diameter of about 0.8 cm (day 12). […] Image treatment, segmentation, tri-dimensional reconstruction and quantification were performed using ImageJ and Amira 5.4.3 (Visualization Sciences Group, Burlington, MA, USA) software.
Animals were anesthetized by isoflurane (Forene, Abbott France, Rungis, France) inhalation (3% for induction and 1–1.5% for maintenance) and then after placed in a carbon fibers bed. […] Analysis of reconstructed images and quantification of the vascular network were performed using Amira 5.4.3 software.

CEVSQLLKGDAC (disulfide) [TAX2, CD47-derived cyclic disulfide dodecapeptide …]
competition with biotinylated TAX2 for TSP-1 binding [1]: Competitive binding occurred in a dose-dependent fashion
large central necrotic area inside tumor masses (MRI and μCT) [2]: large central necrotic area inside tumor masses
median tumor volume, melanoma ([2]; early stages (day 12, caliper), n = 54): No significant modification
increase of necrotic area vs control (HPS staining) ([2]; p < 0.05): about 3 fold
tumor necrosis at day 20 ([2]; photographs): substantial tumor necrosis
